Reference: patent US20060287395A1, “Pharmaceutical composition for the therapy of lower urinary tract symptoms” (ASTELLAS PHARMA INC., priority 1999, published 2006)
Where a name gives a salt, the structure may show the parent alone.

Key:
[1] = system: patients suffering from lower urinary tract symptoms; experiment: Clinical test to patients suffering from lower urinary tract symptoms (four-week test); type: in vivo, human; conditions: total score for subjective symptom and QOL index
Procedure: A clinical test was carried out under the following conditions using the patients suffering from lower urinary tract symptoms. (cf. Chapter 1: Indexes for Evaluation of Prostatic Hypertrophy in “Guideline for Clinical Test for Urinary Disturbance” published by Iyaku Tosho Shuppan) Subjects: four patients diagnosed as lower urinary tract symptoms, i.e. urinary disturbance without clear organic or neurological abnormality in lower urinary tract (3 males and 1 female). Test drug and administering method:. One capsule containing 0.2 mg of tamsulosin hydrochloride was orally administered once daily after breakfast. Test period: four weeks (28 days) Observed items: Evaluations and measurements were made for the following items before and after the administration. (1) Total score for subjective symptoms Questioning was done to the patients for the following items and the total score was obtained. (2) QOL Index With regard to an index for quality of life (QOL), a questioning that “How do you think if the present urinary condition continues in future as well?” was done as a total diagnosis concerning the urinary disturbance and any of the following evaluations was collected.

[2] = system: patients suffering from lower urinary tract symptoms; experiment: Clinical test to patients suffering from lower urinary tract symptoms (twelve-week test); type: in vivo, human; conditions: total score for subjective symptom, QOL index and test on functions
Procedure: A clinical test was carried out under the following conditions using the patients suffering from lower urinary tract symptoms. Subjects: eighteen patients diagnosed as lower urinary tract symptoms, i.e. urinary disturbance without clear organic or neurological abnormality in lower urinary tract (15 males and 3 female, age: 57.2±14.2). Test drug and administering method: One capsule containing 0.2 mg of tamsulosin hydrochloride was orally administered once daily after breakfast for four weeks and, after that, the dose after 4 weeks was controlled in consideration of the following criterion, and the dose was orally administered once daily after breakfast. [table] Test period: twelve weeks (84 days) (4 weeks (28 days) for 8 males) Observed items: Evaluations and measurements were made for the following items before and after the administration. (1) Total score for subjective symptoms Total scores for the following <1>˜<7> before and after the administration were obtained in the same way as in Test Example 1. <1> Feel of residual urine, <2> Urination within two hours, <3> Break of urinary stream, <4> Urgency, <5> Force of urinary stream, <6> Straining upon urination and <7> Frequency of urination at night. (2) QOL Index “How do you think if the present urinating state continues in future as well?” (3) Test on Functions <1> maximum urinary stream rate <2> average urinary stream rate

CCOc1ccccc1OCCN[C@H](C)Cc1ccc(OC)c(S(N)(=O)=O)c1 [tamsulosin hydrochloride, (R)(−)-5-[2-[[2-(o-ethoxyphenoxy)ethyl]amino]propyl]-2-methoxybenzene-sulfonamide]
Overall conclusion on efficacy as therapeutic agent for lower urinary tract symptoms [1]: confirmed to be effective | Overall conclusion on efficacy as therapeutic agent for lower urinary tract symptoms [2]: confirmed to be effective
